Drawing on BindingDB's records for doi:10.3109/14756360903179385 (University of Peshawar, 2010), this text covers IC50 for 3 compounds.

What is called IC50 is the point on the concentration scale where inhibition reaches its midpoint.

Molecules are shown by their SMILES.

The target of the test is Urease (Canavalia ensiformis, UniProt P07374). Kind of test: Urease Inhibition Assay. The following applies: pH 6.8; 30 °C. As for the experimental part: Reaction mixtures comprising 25 μL of enzyme (jack bean urease) solution and 55 μL of buffer containing 100 mM urea were incubated with 5 μL of test compound (0.5 mM) at 30°C for 15 min in 96-well plates. Urease activity was determined by measuring the ammonia production using the indophenol method, as described by Weatherburn11. Briefly, 45 μL of each phenol reagent (1% (w/v) phenol and 0.005% (w/v) sodium nitroprussside) and 70 μL of alkali reagent (0.5% (w/v) NaOH and 0.1% active chloride, NaOCl) were added to each well. The increasing absorbanceat 630 nm was measured after 50 min, using a microplate reader (Molecular Devices, Sunnyvale, CA, USA). All reactions were performed in triplicate in a final volume of 200 μL. The results (change in absorbance per min) were processed using SoftMax Pro software (Molecular Devices). The entire assay was performed at pH 6.8.
Urease, sequence (P07374 whole entry): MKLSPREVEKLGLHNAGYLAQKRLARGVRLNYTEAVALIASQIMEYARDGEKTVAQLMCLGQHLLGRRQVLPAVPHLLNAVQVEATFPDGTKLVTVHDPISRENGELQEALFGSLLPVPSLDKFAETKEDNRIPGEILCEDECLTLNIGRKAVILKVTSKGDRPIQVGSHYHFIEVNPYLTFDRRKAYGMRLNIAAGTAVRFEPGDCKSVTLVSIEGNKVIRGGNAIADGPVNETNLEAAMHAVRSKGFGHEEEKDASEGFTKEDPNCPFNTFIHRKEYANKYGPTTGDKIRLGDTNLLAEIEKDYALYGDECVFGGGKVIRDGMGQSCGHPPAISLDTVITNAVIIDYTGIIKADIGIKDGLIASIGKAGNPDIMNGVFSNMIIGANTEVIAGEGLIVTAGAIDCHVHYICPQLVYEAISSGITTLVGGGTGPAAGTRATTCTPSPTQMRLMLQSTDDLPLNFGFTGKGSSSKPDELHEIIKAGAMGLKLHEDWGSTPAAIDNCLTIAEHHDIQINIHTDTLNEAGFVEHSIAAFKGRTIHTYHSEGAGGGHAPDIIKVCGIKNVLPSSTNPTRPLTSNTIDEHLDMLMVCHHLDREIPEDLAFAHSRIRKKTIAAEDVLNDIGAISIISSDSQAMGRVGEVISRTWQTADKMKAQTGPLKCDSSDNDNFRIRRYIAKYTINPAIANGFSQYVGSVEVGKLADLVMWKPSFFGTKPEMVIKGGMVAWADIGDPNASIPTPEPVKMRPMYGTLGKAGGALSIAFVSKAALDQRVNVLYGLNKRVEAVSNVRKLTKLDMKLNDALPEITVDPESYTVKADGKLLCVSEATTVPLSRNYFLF
As for `O=c1c2cc(O)ccc2oc2cc(O)cc(O)c12` [1,3,7-trihydroxy-9H-xanthen-9-one], the IC50 was determined as 138 µM.
`CCCCCCCCCCCCCCCCCCCCCCCCOC(=O)C=Cc1ccc(O)c(O)c1` [Tetracosyl 3-(3,4-dihydroxyphenyl) acrylate (2)] registered an IC50 of 21 µM. This IC50 is about 6.6-fold lower than that of the compound before.
The result for `O=c1c2cccc(O)c2oc2c(O)c(O)ccc12` [US9114126, MB5] reads 37.9 µM.
